This note sets out measurements from ChEMBL document CHEMBL1136544, “3-(2-carboxyethyl)-4,6-dichloro-1H-indole-2-carboxylic acid: an allosteric inhibitor of fructose-1,6-bisphosphatase at the AMP site” (Bioorg Med Chem Lett, 2003).

A word on the IC50: it is the concentration that inhibits the measured activity by half.

Target in the first experiment: not listed separately
The experiment is described as follows: Inhibitory activity against Fructose-1,6-bisphosphatase (F16BPase) in rabbit liver. The experiment is classed as tissue-based, Oryctolagus cuniculus.
`O=C(O)CCc1c(C(=O)O)[nH]c2cc(Cl)cc(Cl)c12` had a half-maximal inhibitory concentration (IC50) of 210 nM.

Target in another experiment: not listed separately
Put plainly: Inhibitory activity against Fructose-1,6-bisphosphatase (F16BPase) in rat liver. The experiment is classed as tissue-based.
For `O=C(O)CCc1c(C(=O)O)[nH]c2cc(Cl)cc(Cl)c12`, half-maximal inhibition (IC50) was put at 11000 nM.

Target in a further experiment: not listed separately
The experiment is described as follows: Inhibitory activity against Fructose-1,6-bisphosphatase (F16BPase) in human liver. The format is tissue-based.
For the molecule `CN(C)C(=O)CCc1c(C(=O)O)[nH]c2cc(Cl)cc(Cl)c12`, the IC50 stood at 1700 nM.
Still for that read-out and setting: the result for `CN(C)C(=O)c1[nH]c2cc(Cl)cc(Cl)c2c1CCC(=O)O` reads more than 10000 nM; that for `O=C(O)c1[nH]c2cc(Cl)cc(Cl)c2c1CCCO`, 2700 nM; that for `O=C(O)CCCCc1c(C(=O)O)[nH]c2cc(Cl)cc(Cl)c12`, 1200 nM.
The same measure, in the same setting: then `O=C(O)CCCc1c(C(=O)O)[nH]c2cc(Cl)cc(Cl)c12`, with 1000 nM.
Still for that read-out and setting: then `NC(=O)CCc1c(C(=O)O)[nH]c2cc(Cl)cc(Cl)c12`, with 2200 nM.
`Cn1c(C(=O)O)c(CCC(=O)O)c2c(Cl)cc(Cl)cc21` yielded an IC50 of more than 10000 nM.
`O=C(O)CCc1c(C(=O)NO)[nH]c2cc(Cl)cc(Cl)c12` displayed an IC50 of more than 10000 nM.
On the same count and under the same terms, the result for `CCOC(=O)c1[nH]c2cc(Cl)cc(Cl)c2c1CCC(=O)O` reads more than 10000 nM; that for `COC(=O)CCc1c(C(=O)O)[nH]c2cc(Cl)cc(Cl)c12`, 7000 nM.
On the same count and under the same terms, then `O=C(O)CCc1c(CO)[nH]c2cc(Cl)cc(Cl)c12`, with more than 10000 nM; and `NC(=O)c1[nH]c2cc(Cl)cc(Cl)c2c1CCC(=O)O`, with more than 10000 nM.
The molecule `O=C(CCc1c(C(=O)O)[nH]c2cc(Cl)cc(Cl)c12)NO` registered an IC50 of 1500 nM.
On the same count and under the same terms, then `O=C(O)Cc1c(C(=O)O)[nH]c2cc(Cl)cc(Cl)c12`, with 2500 nM.

A further experiment concerns the target T1, Fructose-1,6-bisphosphatase 1 (Sus scrofa, UniProt P00636).
T1 sequence (P00636 whole entry): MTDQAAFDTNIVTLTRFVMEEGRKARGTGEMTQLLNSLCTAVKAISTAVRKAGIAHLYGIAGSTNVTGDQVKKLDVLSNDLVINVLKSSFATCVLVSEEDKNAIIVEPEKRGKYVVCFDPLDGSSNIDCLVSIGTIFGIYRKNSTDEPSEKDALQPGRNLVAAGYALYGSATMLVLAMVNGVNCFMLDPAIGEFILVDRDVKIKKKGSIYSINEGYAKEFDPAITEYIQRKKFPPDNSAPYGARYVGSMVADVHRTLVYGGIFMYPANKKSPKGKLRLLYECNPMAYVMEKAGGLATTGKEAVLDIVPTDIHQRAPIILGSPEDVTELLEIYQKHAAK
The experiment is described as follows: Inhibitory activity against Fructose-1,6-bisphosphatase (F16BPase) in porcine kidney. The experiment is classed as tissue-based.
Take `O=C(O)CCc1c(C(=O)O)[nH]c2cc(Cl)cc(Cl)c12`: it took 1000 nM to reach half-maximal inhibition (IC50).
